Values of other authors in patent publication US7285553B2, “Serotonergic 5HT7 receptor compounds for treating ocular and CNS disorders” (Alcon Manufacturing, Ltd., priority 1998, dated 2007).
Like-named read-outs stand apart in the source and are kept apart here.

Legend:
rabbit eye = conditions: for IOP: rabbits; for intraocular pressure in the anterior chamber of the eye: topically applied to the rabbit eye
IOP [1] = tested on: IOP
IOP [2] = conditions: glaucomatous monkeys
IOP [3] = tested on: IOP; remark: listed apart in the source

CCCN(CCC)C1CCc2cccc(O)c2C1 (centres unmarked) [8-hydroxy DPAT]
IOP (rabbit eye): lower IOP

c1ccc2c(c1)OC[C@H](CNCCCOc1ccc3c(c1)OCO3)O2 [MKC-242]
IOP (rabbit eye): lower IOP

CNCCC(Oc1ccc(C(F)(F)F)cc1)c1ccccc1 (centres unmarked) [fluoxetine]
IOP (IOP [1]; human subjects, oral administration): raises IOP

COc1cccc(CCc2ccccc2OCC(CN(C)C)OC(=O)CCC(=O)O)c1 (centres unmarked) [Saprogrelate]
IOP (rabbit eye; dosed topically or orally): lowers IOP
IOP (IOP [1]; man, dosed topically or orally): lowers IOP

COc1ccccc1N1CCN(CCCNc2c(C)c(=O)n(C)c(=O)n2C)CC1 [5-methylurapidil]
IOP (IOP [2]): lowered IOP

NCCc1c[nH]c2ccc(C(N)=O)cc12 [Example 5-CT, 5-carboxamidotryptamine]
intraocular pressure in the anterior chamber of the eye (rabbit eye): raise intraocular pressure

O=C(c1ccc(F)cc1)C1CCN(CCn2c(=O)[nH]c3ccccc3c2=O)CC1 [Ketanserin]
IOP (rabbit eye): lowers IOP
IOP (IOP [1]; man): lowers IOP

NCCc1c[nH]c2ccc(O)cc12 [Example 5HT, 5-hydroxy tryptamine]
IOP (IOP [3]; intracamerally): raised IOP
blood-aqueous barrier (IOP [3]; intracamerally): caused breakdown of the blood-aqueous barrier
IOP (IOP [3]; topically applied): lowers IOP
intraocular pressure in the anterior chamber of the eye (rabbit eye): raise intraocular pressure

CC[C@@H](CO)NC(=O)[C@@H]1C=C2c3cccc4c3c(cn4C)C[C@H]2N(C)C1 [Methysergide]
IOP (rabbit eye): lowered IOP
